# From patent US20130267594A1, “PROLYL HYDROXYLASE INHIBITORS AS RADIATION MITIGATORS AND RADIATION PROTECTORS” (priority 2010, published 2013)
# Assays:
# MTA3 [1] = type: cell-based
# Hif1α [2] = type: cell-based, mouse
# CHD4 [3] = type: cell-based
# MTA3 [4] = type: cell-based; remark: listed apart in the source
# Suv39h1 = type: cell-based
# Hif1α [5] = type: cell-based
# CHD4 [6] = type: cell-based; remark: listed apart in the source
structure (smiles),measurement,setting,value
[Cl-].[Cl-].[Co+2] [CoCl2],MTA3 protein levels,MTA3 [1],increased
same,ability to increase Hif1α levels in SuvDKO MEFs,Hif1α [2],not altered
same,CHD4 mRNA levels,CHD4 [3],increased
same,MTA3 mRNA levels,MTA3 [4],increased
same,expression of the Suv39h1 methyltransferase,Suv39h1,"to a lesser extent, CoCl2, increased expression of the Suv39h1 methyltransferase"
same,Hif1α protein levels,Hif1α [5],increased
same,accumulation of Hif1α,Hif1α [5],significant accumulation of Hif1α
same,"accumulation of Hif1α protein in combination with IR, versus agent alone",Hif1α [5],much larger accumulation of Hif1α protein
same,CHD4 protein levels,CHD4 [6],increased
